Experimental data from patent US12655116B2, “Substituted isophthalic acid diamides” (Bayer Aktiengesellschaft, priority 2020, dated 2026).

Columns and labels:
ALOMY [1] = test: Pre-emergence herbicidal action against ALOMY; format: in vivo, Alopecurus myosuroides; conditions: Alopecurus myosuroides, pre-emergence, 504 h; for pest or weed control at 320 g/ha: scored visually after 3 weeks, 100% = plants have died, 0% = like control plants
In short: (§1)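 Greenhouse pots of sandy loam held seeds covered with soil, onto which the compound was applied before emergence. An aqueous suspension or emulsion of WP or EC was used at 600 to 800 l/ha with 0.2% wetting agent. Percent damage was judged visually at 3 weeks.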

VIOTR [2] = test: Post-emergence herbicidal action against VIOTR; format: in vivo, Viola tricolor; conditions: Viola tricolor, 504 h
In short: (§2)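 A WP or EC formulation diluted in water with 0.2% wetting agent was sprayed at 600 to 800 l/ha onto one-leaf-stage plants grown in sandy loam. About 3 weeks later, action was rated visually in percent, 100% being dead plants.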

VERPE [3] = test: Post-emergence herbicidal action against VERPE; format: in vivo, Veronica persica; conditions: Veronica persica, 504 h
In short: as §2

POLCO [4] = test: Pre-emergence herbicidal action against POLCO; format: in vivo, Polygonum convolvulus; conditions: Fallopia convolvulus, 504 h, dosage 320 g/ha
In short: as §1

POLCO [5] = test: Post-emergence herbicidal action against POLCO; format: in vivo, Polygonum convolvulus; conditions: Fallopia convolvulus, 504 h, dosage 80 g/ha
In short: as §2

VERPE [6] = test: Pre-emergence herbicidal action against VERPE; format: in vivo, Veronica persica; conditions: Veronica persica, 504 h, dosage 320 g/ha
In short: as §1

SETVI = test: Pre-emergence herbicidal action against SETVI; format: in vivo, Setaria viridis; conditions: Setaria viridis, 504 h; for pest or weed control at 80 g/ha: dosage 80 g/ha; for pest or weed control at 320 g/ha: dosage 320 g/ha
In short: as §1

MATIN [7] = test: Pre-emergence herbicidal action against MATIN; format: in vivo, Matricaria inodora; conditions: Tripleurospermum inodorum, 504 h; for pest or weed control at 80 g/ha: dosage 80 g/ha; for pest or weed control at 320 g/ha: dosage 320 g/ha
In short: as §1

AVEFA [8] = test: Post-emergence herbicidal action against AVEFA; format: in vivo, Avena fatua; conditions: Avena fatua, 504 h, visual assessment about 3 weeks after treatment, 100% = plants have died, 0% = like control plants
In short: as §2

AMARE [9] = test: Post-emergence herbicidal action against AMARE; format: in vivo, Amaranthus retroflexus; conditions: Amaranthus retroflexus, 504 h, visual assessment about 3 weeks after treatment, 100% = plants have died, 0% = like control plants
In short: as §2

ECHCG [10] = test: Pre-emergence herbicidal action against ECHCG; format: in vivo, Echinochloa crus-galli; conditions: Echinochloa crus-galli, 504 h
In short: as §1

VIOTR [11] = test: Pre-emergence herbicidal action against VIOTR; format: in vivo, Viola tricolor; conditions: Viola tricolor, 504 h; for pest or weed control at 80 g/ha: dosage 80 g/ha; for pest or weed control at 320 g/ha: dosage 320 g/ha
In short: as §1

STEME [12] = test: Pre-emergence herbicidal action against STEME; format: in vivo, Stellaria media; conditions: Stellaria media, 504 h; for pest or weed control at 80 g/ha: dosage 80 g/ha; for pest or weed control at 320 g/ha: dosage 320 g/ha
In short: as §1

LOLRI = test: Post-emergence herbicidal action against LOLRI; format: in vivo, Lolium rigidum; conditions: Lolium rigidum, 504 h, dosage 80 g/ha
In short: as §2

ECHCG [13] = test: Post-emergence herbicidal action against ECHCG; format: in vivo, Echinochloa crus-galli; conditions: Echinochloa crus-galli, 504 h; for pest or weed control at 20 g/ha: dosage 20 g/ha; for pest or weed control at 80 g/ha: dosage 80 g/ha
In short: as §2

HORMU [14] = test: Pre-emergence herbicidal action against HORMU; format: in vivo, Hordeum murinum; conditions: Hordeum murinum, 504 h, pre-emergence
In short: as §1

ALOMY [15] = test: Post-emergence herbicidal action against ALOMY; format: in vivo, Alopecurus myosuroides; conditions: Alopecurus myosuroides, 504 h, visual assessment about 3 weeks after treatment vs untreated controls; for pest or weed control at 80 g/ha: dosage 80 g/ha
In short: as §2

AMARE [16] = test: Pre-emergence herbicidal action against AMARE; format: in vivo, Amaranthus retroflexus; conditions: Amaranthus retroflexus, 504 h, 100% = plants have died, 0% = like control plants; for pest or weed control at 80 g/ha: scored visually after 3 weeks vs untreated controls; for pest or weed control at 320 g/ha: scored visually after 3 weeks
In short: as §1

HORMU [17] = test: Post-emergence herbicidal action against HORMU; format: in vivo, Hordeum murinum; conditions: Hordeum murinum, 504 h; for pest or weed control at 20 g/ha: dosage 20 g/ha; for pest or weed control at 80 g/ha: dosage 80 g/ha
In short: as §2

STEME [18] = test: Post-emergence herbicidal action against STEME; format: in vivo, Stellaria media; conditions: Stellaria media, 504 h
In short: as §2

MATIN [19] = test: Post-emergence herbicidal action against MATIN; format: in vivo, Matricaria inodora; conditions: Tripleurospermum inodorum, 504 h; for pest or weed control at 20 g/ha: dosage 20 g/ha; for pest or weed control at 80 g/ha: dosage 80 g/ha
In short: as §2

AVEFA [20] = test: Pre-emergence herbicidal action against AVEFA; format: in vivo, Avena fatua; conditions: Avena fatua, 504 h, pre-emergence; for pest or weed control at 320 g/ha: scored visually after 3 weeks, 100% = plants have died, 0% = like control plants
In short: as §1

CCNC(=O)c1c(C(F)(F)F)ccc(C(=O)Nc2nnnn2CC)c1SC [Example 2-82]
pest or weed control at 320 g/ha (ALOMY [1]): 100% | pest or weed control at 20 g/ha (VIOTR [2]; 20 g/ha): 80% | pest or weed control at 80 g/ha (VIOTR [2]): 80% | pest or weed control at 20 g/ha (VERPE [3]): 80% | pest or weed control at 80 g/ha (VERPE [3]): 90% | pest or weed control at 320 g/ha (POLCO [4]): 90% | pest or weed control at 80 g/ha (POLCO [5]): 80% | pest or weed control at 320 g/ha (VERPE [6]): 90% | pest or weed control at 80 g/ha (SETVI): 100% | pest or weed control at 320 g/ha (SETVI): 100% | pest or weed control at 80 g/ha (MATIN [7]): 100% | pest or weed control at 320 g/ha (MATIN [7]): 100% | pest or weed control at 20 g/ha (AVEFA [8]): 90% | pest or weed control at 80 g/ha (AVEFA [8]): 90% | pest or weed control at 20 g/ha (AMARE [9]): 90% | pest or weed control at 80 g/ha (AMARE [9]): 90% | pest or weed control at 80 g/ha (ECHCG [10]): 100% | pest or weed control at 320 g/ha (ECHCG [10]): 100% | pest or weed control at 80 g/ha (VIOTR [11]): 100% | pest or weed control at 320 g/ha (VIOTR [11]): 100% | pest or weed control at 80 g/ha (STEME [12]): 100% | pest or weed control at 320 g/ha (STEME [12]): 100% | pest or weed control at 80 g/ha (LOLRI): 90% | pest or weed control at 20 g/ha (ECHCG [13]): 80% | pest or weed control at 80 g/ha (ECHCG [13]): 80% | pest or weed control at 80 g/ha (HORMU [14]): 80% | pest or weed control at 320 g/ha (HORMU [14]): 100% | pest or weed control at 80 g/ha (ALOMY [15]): 90% | pest or weed control at 80 g/ha (AMARE [16]): 100% | pest or weed control at 320 g/ha (AMARE [16]): 100% | pest or weed control at 20 g/ha (HORMU [17]): 80% | pest or weed control at 80 g/ha (HORMU [17]): 90% | pest or weed control at 20 g/ha (STEME [18]): 80% | pest or weed control at 80 g/ha (STEME [18]): 90% | pest or weed control at 20 g/ha (MATIN [19]): 90% | pest or weed control at 80 g/ha (MATIN [19]): 90% | pest or weed control at 80 g/ha (AVEFA [20]): 100% | pest or weed control at 320 g/ha (AVEFA [20]): 100%

CCn1nnnc1NC(=O)c1ccc(C(F)F)c(C(=O)NC)c1Cl [Example 2-147]
pest or weed control at 80 g/ha (ALOMY [1]; 80 g/ha, scored visually after 3 weeks vs untreated controls (100% = plants have died, 0% = like control plants)): 90% | pest or weed control at 320 g/ha (ALOMY [1]): 100% | pest or weed control at 80 g/ha (VIOTR [2]): 80% | pest or weed control at 20 g/ha (VERPE [3]): 80% | pest or weed control at 80 g/ha (VERPE [3]): 90% | pest or weed control at 320 g/ha (POLCO [4]): 80% | pest or weed control at 80 g/ha (POLCO [5]): 80% | pest or weed control at 320 g/ha (VERPE [6]): 90% | pest or weed control at 80 g/ha (SETVI): 100% | pest or weed control at 320 g/ha (SETVI): 100% | pest or weed control at 80 g/ha (MATIN [7]): 100% | pest or weed control at 320 g/ha (MATIN [7]): 100% | pest or weed control at 20 g/ha (AVEFA [8]): 90% | pest or weed control at 80 g/ha (AVEFA [8]): 100% | pest or weed control at 20 g/ha (AMARE [9]): 90% | pest or weed control at 80 g/ha (AMARE [9]): 90% | pest or weed control at 80 g/ha (ECHCG [10]): 100% | pest or weed control at 320 g/ha (ECHCG [10]): 100% | pest or weed control at 80 g/ha (VIOTR [11]): 100% | pest or weed control at 320 g/ha (VIOTR [11]): 100% | pest or weed control at 80 g/ha (STEME [12]): 100% | pest or weed control at 320 g/ha (STEME [12]): 100% | pest or weed control at 80 g/ha (LOLRI): 90% | pest or weed control at 20 g/ha (ECHCG [13]): 90% | pest or weed control at 80 g/ha (ECHCG [13]): 90% | pest or weed control at 80 g/ha (HORMU [14]): 90% | pest or weed control at 320 g/ha (HORMU [14]): 100% | pest or weed control at 20 g/ha (ALOMY [15]; dosage 20 g/ha): 80% | pest or weed control at 80 g/ha (ALOMY [15]): 90% | pest or weed control at 80 g/ha (AMARE [16]): 100% | pest or weed control at 320 g/ha (AMARE [16]): 100% | pest or weed control at 20 g/ha (HORMU [17]): 80% | pest or weed control at 80 g/ha (HORMU [17]): 90% | pest or weed control at 20 g/ha (STEME [18]): 80% | pest or weed control at 80 g/ha (STEME [18]): 90% | pest or weed control at 20 g/ha (MATIN [19]): 100% | pest or weed control at 80 g/ha (MATIN [19]): 100% | pest or weed control at 80 g/ha (AVEFA [20]): 100% | pest or weed control at 320 g/ha (AVEFA [20]): 100%
